“And” between values parts separate entries of the source, which are not always exact repeats. Equal values may be shown once.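 Exposure lasted 48 hours, with cells grown in 96-well plates and compounds tested at five concentrations. At the GI50, growth is halved. TGI: concentration producing complete growth inhibition.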 *1 amine or outer side, *2 acyl side, *3 side chain or, on linkers, in order; H or OH if unused. Where a SMILES comes first, the peptide text is derived from it. [ ]: non-standard residue; d: D form. The star is where a group is joined. ξ: configuration not given here. X15 = CCN(CC)c1ccc2cc(N*)c(=O)oc2c1; dIva = CC[C@@](C)(N)C(=O)O; X14 = O=C(OCCN[*:1])[*:2]; Aib = CC(C)(N)C(=O)O; ξP = O=C(O)C1CCCN1; βAla = NCCC(=O)O
Legend:
Test in all cases: NCI tumour cell line growth inhibition, 48 h
[1] = test system: CCRF-CEM leukemia
[2] = test system: M14 melanoma
[3] = test system: COLO 205 colon
[4] = test system: T-47D breast
[5] = test system: SF-295 CNS
[6] = test system: ACHN renal
[7] = test system: SK-OV-3 ovarian
[8] = test system: HOP-62 NSCLC
[9] = test system: SR leukemia
[10] = test system: OVCAR-3 ovarian

SMILES | GI50 [1] | TGI [1] | GI50 [2] | TGI [2] | GI50 [3] | TGI [3] | GI50 [4] | TGI [4] | GI50 [5] | TGI [5] | GI50 [6] | TGI [6] | GI50 [7] | TGI [7] | GI50 [8] | TGI [8] | GI50 [9] | TGI [10] | TGI [9] | GI50 [10]
CCN1C(=O)N(CC)C2C1NN=c1s/c(=C\c3cc4ccccc4[nH]3)c(=O)n12 (stereo not drawn) | 0.0208 µM | > 100 µM | 0.0237 µM | > 100 µM | 0.0201 µM | 0.0448 µM | 0.0348 µM | 5.94 µM | < 0.0112 µM | 14.8 µM | < 0.0157 µM | 20.3 µM | 0.0246 µM | 17.3 µM | 0.0412 µM | 18.7 µM | < 0.01 µM |  |  | 
COc1ccc(/C=C2\CCC(CN(C)C)C2=O)cc1OC (stereo not drawn) |  | 6.74 µM |  | 16.1 µM |  | 10.6 µM |  | 44.5 µM |  | 29.2 µM |  | 15.9 µM |  | 33.7 µM |  | 39.9 µM |  | 15.8 µM | 9.26 µM | 
CCN(CC)c1ccc2cc(NC(=O)OCCNC(=O)CCNC(=O)[C@H](CC(C)C)NC(=O)C(C)(C)NC(=O)C(C)(C)NC(=O)[C@H](CC(C)C)NC(=O)CCNC(=O)C(C)(C)NC(=O)[C@H](CC(C)C)NC(=O)CCNC(=O)[C@@](C)(CC)NC(=O)[C@H](C)NC(=O)CCNC(=O)C(C)(C)NC(=O)[C@H](C)NC(=O)[C@@H]3CCCN3C(=O)[C@@](C)(CC)NC(=O)[C@H](Cc3ccccc3)NC(=O)C3CCCN3C(=O)C(C)(C)NC(=O)C3CCCN3C(=O)C(C)(C)NC(C)=O)c(=O)oc2c1 (stereo partly drawn) (Ac-[Aib][ξP][Aib][ξP]F[dIva]PA[Aib][βAla]A[dIva][βAla]L[Aib][βAla]L[Aib][Aib]L[βAla][X14]-X15) | 0.00465 µM | 0.0287 µM | 0.00838 µM | 0.0358 µM | 0.00237 µM | 0.006 µM | 0.00302 µM | 0.0143 µM | 0.00316 µM | 0.0103 µM | 0.0406 µM | 0.16 µM | 0.0028 µM | 0.00775 µM | 0.00385 µM | 0.021 µM | 0.00423 µM | 0.0139 µM | 0.0235 µM | 0.00338 µM
Nc1nc(N)c(N=O)c(OCC2CCCCC2)n1 | 8.83 µM | > 100 µM | 11.8 µM | > 100 µM and 52.2 µM | 15.1 µM | 37.4 µM and 33.8 µM | 4.09 µM | > 58.6 µM and 23.9 µM |  | 61.2 µM and 77.2 µM | 5.47 µM | > 100 µM and 34.3 µM | 27.9 µM | > 80.9 µM and 74.3 µM |  | > 100 µM and 76.5 µM | 6.22 µM | 64.7 µM and 61.5 µM | > 85.9 µM and 27.4 µM | 7.37 µM
FC(F)(F)c1ccc(-c2cnc(Cl)nc2NCc2cc(C(F)(F)F)cc(C(F)(F)F)c2)cc1 | 3.82 µM | > 100 µM | 4.44 µM | > 100 µM | 1.88 µM | 3.43 µM | 3.14 µM | > 100 µM | 2.66 µM | > 100 µM | 3.28 µM | > 100 µM | 3.4 µM | > 100 µM | 3.86 µM | > 100 µM | 3.67 µM | 9.25 µM | > 100 µM | 2.79 µM
CN(C)c1ccc(C(=C2C=CC(=[N+](C)C)C=C2)c2ccc(N(C)C)cc2)cc1 |  | 0.832 µM | 0.14 µM | 0.598 µM and 1.39 µM | 0.0974 µM | 0.447 µM and 0.751 µM | 0.157 µM | 1.12 µM |  | 0.244 µM and 0.885 µM | 0.253 µM | 1.17 µM and 1.01 µM | 0.268 µM | 0.86 µM and 0.718 µM | 0.0447 µM | 1.11 µM and 2.43 µM | 0.0591 µM |  | 0.672 µM and 3.2 µM | 
COc1cc2c3c(n(C)c(=O)c2cc1OC)-c1cc2c(cc1/C3=C\C(N)CN)OCO2 (stereo not drawn) | 0.333 µM | 3.63 µM | 2.23 µM | 7.26 µM | 2.08 µM | 12.1 µM | 1.94 µM | 10.3 µM | 1.31 µM | 7.79 µM | 0.73 µM | 2.82 µM | 2.45 µM | 13.1 µM | 1.29 µM | 8.91 µM | 0.219 µM | 6.88 µM |  | 1.92 µM
OCC1OC(n2cnc3c(=S)nc[nH]c32)C(O)C1O (stereo not drawn) | 3.35 µM | > 2500 µM | 1.15 µM | > 2500 µM | 8.34 µM | > 2450 µM | 2.95 µM | > 2500 µM | 3.49 µM | > 2500 µM | 4.87 µM | > 2500 µM | 1.25 µM | 1060 µM and > 47.4 µM | 1.48 µM | > 2500 µM |  | > 2500 µM | > 2500 µM | 
CC(=O)O[C@H]1CC[C@@]2(C)[C@@H](CC[C@@H]3[C@@H]2CC[C@]2(C)C=C(C=O)C[C@@H]32)C1 | 2.48 µM | 6.75 µM | 4.74 µM | 20.8 µM | 19 µM | 39.2 µM | 3.74 µM | 15.5 µM | 17.4 µM | 36 µM | 20.2 µM | 60.8 µM | 9.67 µM | 21.7 µM | 10.5 µM | 23.1 µM | 3.19 µM | 9.04 µM | 9.94 µM | 3.1 µM
CCCOc1nc(SCCC)nc2c1cnn2-c1ccccc1 | 56.7 µM | > 100 µM | > 100 µM | > 100 µM | > 100 µM | > 100 µM | > 100 µM | > 100 µM | 31.8 µM | > 100 µM | > 100 µM | > 100 µM | > 100 µM | > 100 µM | > 100 µM | > 100 µM | 32.2 µM | > 100 µM | > 100 µM | > 100 µM
c1ccc(P(CCP(CCP(c2ccccc2)c2ccccc2)c2ccccc2)CCP(c2ccccc2)c2ccccc2)cc1 (stereo not drawn) |  | > 10 µM | > 10 µM and 4.18 µM | > 10 µM | > 10 µM and 2.08 µM | > 10 µM |  | 4.79 µM | > 10 µM and 3.56 µM | > 10 µM | > 10 µM | > 10 µM |  | > 10 µM |  | > 10 µM |  | > 10 µM | > 10 µM | > 10 µM
CCCCN(CCCC)c1ccc(C(=NC(C)CCCN(CC)CC)c2ccc(N(C)C)cc2)cc1 (stereo not drawn) | 1.22 µM | 3.87 µM | 0.873 µM | 1.72 µM | 0.85 µM | 1.69 µM | 0.809 µM | 1.89 µM | 0.88 µM | 1.73 µM | 0.935 µM | 1.89 µM | 1.14 µM | 2.33 µM | 0.829 µM | 1.63 µM | 0.708 µM | 1.81 µM | 1.82 µM | 0.846 µM

Source: PubChem BioAssay (NCI)
